Assay results as given in patent US11795199B2, “Peptide targeting Mycobacterium tuberculosis toxin-antitoxin system and use thereof” (Seoul National University R&DB Foundation, priority 2017, dated 2023).

Target: VapBC26 protein complex (Mycobacterium tuberculosis, UniProt O53778)
Sequence (O53778 whole entry, one chain of several): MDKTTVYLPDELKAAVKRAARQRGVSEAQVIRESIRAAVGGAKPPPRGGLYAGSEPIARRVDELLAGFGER

Row | Sequence | concentration of VapBC26 from which the results of RFU were similar | inhibition of VapBC26 toxin-antitoxin complex formation (binding inhibitor, seen as increased ribonuclease activity) | ribonuclease activity of VapBC26 compared with addition of SEQ. ID. NO: 11 and SEQ. ID. NO: 13 peptides
1 | DAELAVLRELAG [mimetic peptide for VapC26 α4] | ≥ 10 µM | acted as a VapBC26 binding inhibitor | more increased
2 | PYVVAELDYLVATRVG [mimetic peptide for VapC26 α3] | – | acted as a VapBC26 binding inhibitor | –
3 | YLVATRVGVDAELAV | – | acted as a VapBC26 binding inhibitor | –
